Patent US11529344B2, “EZH2 inhibitor combination therapies” (Pfizer Inc., priority 2017, dated 2022)

Tested on: DMS114 SCLC xenograft
Description: • (i) Compound Formulation: Compound 1 was formulated as a wet-milled nanosuspension (24 hr milling in 2.5% w/v polyvinyl pyrrolidone (PVP), 0.5% w/v Macrogol 15 Hydroxystearate (Kolliphor HS15) aqueous, with <1 μm particle-size distribution (PSD; ˜650 nm median diameter (d50)) for oral gavage administration. • (ii) Cell Implant, Compound Dosing and Tissue Collection: Immune deficient female mice with a severe combined immunodeficiency (SCID) mutation in a non-obese diabetic background (NOD SCID; 6 to 8 week old; NOD.CB17-Prkdcscid/NCrCrl from Charles River Laboratories) received a subcutaneous (SC) implant of 7.5×10^6 DMS114 cells (in 1:1 matrigel (Trevigen, Cultrex BME Path Clear®, Lot #: 30625F14), total volume 200 μl) into the right flank. Tumor volume and body weight were measured twice a week. On Day 20 post implant, 64 mice were randomized, based on tumor size at a geometric mean (geomean) of about 160 mm^3, into 6 groups corresponding to dose (Table 1). Compounds were administered at 10 ml/kg by oral gavage (Compound 1; BID ( 7/17 hours apart)) or intraperitoneal injection (cisplatin), respectively. The cisplatin dosing schedule was once a week for 3 weeks (Q7Dx3) and started 7 days after the randomization and treatment initiation with Compound 1.
On Day 55, study groups 1, 2, 3 and 4 were terminated (Table 1). Tumor (snap frozen) samples were collected at 4 hours post last dose for pharmacodynamic (PD) analysis. […] Tumor samples from groups 5 and 6 were collected 3 hours post last dose depending on available tumor sizes. All procedures performed on these animals were in accordance with regulations and established guidelines and were reviewed and approved by Pfizer's Institutional Animal Care and Use Committee. • (iii) Data Interpretation: For each experiment, calculations were performed and graphs created in Microsoft Excel and GraphPad Prism version 7.02 respectively. The tumor volume was calculated as 0.5×length×width^2. Tumor growth inhibition (TGI) was determined by the formula: % TGI=[1−(Vtx−Vt0/Vcx−Vc0)]×100, where Vc, Vt are the geometric means of control and treated groups. X=day X on study and 0=initial day of dosing. ELISA Assay: • (i) Histone Extraction: Histone extraction was performed using the EpiQuick Histone Extraction Kit (Epigentek OP0006). Frozen tumor samples were cut and homogenized using cold mortar and pestle on dry-ice. The homogenized mixture was transferred to a 1.5 mL tube in 1× Pre-Lysis Buffer (200 mg/mL) containing phenylmethylsulfonyl fluoride (PMSF). Samples were gently mixed, incubated on ice for 15 minutes, and spun down at 3,000 rpm for 5 minutes at 4° C. The tissue pellet was resuspended in 3 volumes (approximately 200 μL per 100 mg of tissue) of lysis buffer from the Histone Extraction Kit, incubated on ice for 30 minutes, and spun down at 12,000 rpm for 5 minutes at 4° C. Balance-DTT buffer was prepared by adding DTT Solution to balance buffer at a 1:500 ratio. The supernatant (containing acid soluble proteins) was transferred to a new 1.5 mL tube and 0.3 volumes of Balance-dithiothreitol (DTT) buffer from the Histone Extraction Kit were immediately added to each sample. The tumor lysate was briefly sonicated for 4 cycles (30 seconds on and 30 seconds off) at high intensity using the Bioruptor Plus (Diagenode #601020001). Extracts were aliquoted and stored at −20° C. (short term) or −80° C. (long term). Protein concentration was quantified using the Coomassie Plus (Bradford) Assay Kit (Thermo #23236). • (ii) H3K27Me3 and Me2 ELISA Assay: Histone extracts were diluted to a final concentration of 400 ng (or 800 ng) in 100 μL of coating buffer (phosphate buffered saline (PBS) containing 0.05% bovine serum albumin (BSA)).

Compound: N.N.[Cl][Pt][Cl] [cisplatin, reference compound]
- TGI by Day 55 (Compound 1 100 mg/kg BID PO, cisplatin 4 mg/kg IP Q7Dx3, alone or combined): 51%
- tumors regressed or progressed compared to the starting tumor burden (Day 55, Compound 1 100 mg/kg BID, cisplatin 4 mg/kg Q7Dx3): all tumors had progressed
- tumor regression sustained after cisplatin discontinuation (post Day 55, Compound 1 maintenance dosing in combination arm, no further treatment in cisplatin arm): progressed
- survival benefit, Log-rank test (Mantel-Cox) (survival cut-off at 500 mm^3 tumor burden): did not reach the P<0.05 significance level
- median survival (survival cut-off at 500 mm^3 tumor burden, Compound 1 100 mg/kg BID, cisplatin 4 mg/kg Q7Dx3): 37.5 days
